For one data set, the target named is T1, human MCH-1 receptor (Homo sapiens, UniProt Q99705).
T1 construct: expressed in transfected cells
The data set can be described thus: Ca2+ mobilization experiment for the MCH-1 receptor (FLIPR), inhibition of MCH-induced Ca2+ response. Type of data set: cell-based. Conditions: CHO cells stably expressing human MCH-1 receptor, submaximal MCH concentration, read-out: MCH-1 pIC50 (converted). The protocol: The interaction of the compounds of Formula (I) with MCH-1 receptors was assessed in in vitro transient calcium (Ca^2+) mobilization assays in the fluorimetric imaging plate reader (FLIPR) format (Sullivan et al. 1999, Methods Mol Biol 114:125-133). In general, the natural agonist (MCH) is incubated with cells expressing the MCH-1 receptor, which elicits a concentration-dependent transient mobilization of Ca^2+ from internal stores. The interaction of the test compounds with the receptor is assessed in competition experiments. Various concentrations of the test compound are added to the incubation mixture containing the receptor-expressing cells and a submaximal concentration of MCH. The test compound in proportion to its antagonist potency and its concentration inhibits MCH-induced Ca^2+ mobilization.
Cell culture and membrane preparation. Chinese Hamster ovary cells (CHO) stably expressing the human MCH-1 receptor are grown in a 1:1 mixture of Dulbecco's Modified Eagles Medium (DMEM) and HAM's F12 medium including Glutamax™ (Invitrogen), supplemented with 10% heat-inactivated fetal bovine serum and 400 μg/ml geneticin.
Ca^2+ mobilization experiment for the MCH-1 receptor. Twenty-four hours before the experiment, MCH-1 receptor-expressing CHO cells are seeded in 20 μl (5,000 cells per well) into 384-well black wall, clear bottom microtiter plates (Costar). On the day of the experiment, 20 μl per well calcium assay kit containing 10 mM probenicide (Molecular Devices) is added. Cells are loaded for 90 min at 37° C. and 5% CO2 in a cell culture incubator. After loading, 20 μl of serial dilutions of the test compound are added and cells are further incubated for 20 min at room temperature in the dark. After 20 min, 20 μl of a submaximal MCH concentration is added and changes in intracellular calcium are recorded directly in a FLIPR III apparatus (Molecular devices).
Data analysis and results. Data from assays in the presence of compound were calculated as a percentage of total Ca^2+-responses measured in the absence of test compound. Inhibition curves, plotting percent of total Ca^2+-responses versus the log value of the concentration of the test compound, were automatically generated, and sigmoidal inhibition curves were fitted using non-linear regression. The pIC50 values of test compounds were derived from individual curves.
(In general: A change in cytosolic calcium serves as a functional read-out for many receptors and channels.)

Another data set concerns the target T2, HERG potassium channel (Homo sapiens, UniProt Q12809).
T2 construct: expressed in transfected cells
The data set can be described thus: hERG-mediated K+ tail current, automated whole-cell patch clamp (PatchXpress 7000A) in HEK293 cells stably transfected with HERG. Type of data set: cell-based. Conditions: measured after 5 minutes of drug application. From the text:
To determine the extent of block the residual current was compared with vehicle pre-treatment.

T1 sequence (Q99705 whole entry): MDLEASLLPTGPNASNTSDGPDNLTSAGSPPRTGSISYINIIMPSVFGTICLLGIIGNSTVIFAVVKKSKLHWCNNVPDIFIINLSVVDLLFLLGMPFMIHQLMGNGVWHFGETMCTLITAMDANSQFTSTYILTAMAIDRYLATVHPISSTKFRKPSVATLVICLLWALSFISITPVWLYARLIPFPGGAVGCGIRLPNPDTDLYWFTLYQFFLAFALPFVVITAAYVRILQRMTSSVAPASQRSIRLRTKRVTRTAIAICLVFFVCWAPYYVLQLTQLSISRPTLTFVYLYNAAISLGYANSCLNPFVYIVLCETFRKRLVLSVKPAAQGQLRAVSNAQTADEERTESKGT
T2 sequence (Q12809 whole entry): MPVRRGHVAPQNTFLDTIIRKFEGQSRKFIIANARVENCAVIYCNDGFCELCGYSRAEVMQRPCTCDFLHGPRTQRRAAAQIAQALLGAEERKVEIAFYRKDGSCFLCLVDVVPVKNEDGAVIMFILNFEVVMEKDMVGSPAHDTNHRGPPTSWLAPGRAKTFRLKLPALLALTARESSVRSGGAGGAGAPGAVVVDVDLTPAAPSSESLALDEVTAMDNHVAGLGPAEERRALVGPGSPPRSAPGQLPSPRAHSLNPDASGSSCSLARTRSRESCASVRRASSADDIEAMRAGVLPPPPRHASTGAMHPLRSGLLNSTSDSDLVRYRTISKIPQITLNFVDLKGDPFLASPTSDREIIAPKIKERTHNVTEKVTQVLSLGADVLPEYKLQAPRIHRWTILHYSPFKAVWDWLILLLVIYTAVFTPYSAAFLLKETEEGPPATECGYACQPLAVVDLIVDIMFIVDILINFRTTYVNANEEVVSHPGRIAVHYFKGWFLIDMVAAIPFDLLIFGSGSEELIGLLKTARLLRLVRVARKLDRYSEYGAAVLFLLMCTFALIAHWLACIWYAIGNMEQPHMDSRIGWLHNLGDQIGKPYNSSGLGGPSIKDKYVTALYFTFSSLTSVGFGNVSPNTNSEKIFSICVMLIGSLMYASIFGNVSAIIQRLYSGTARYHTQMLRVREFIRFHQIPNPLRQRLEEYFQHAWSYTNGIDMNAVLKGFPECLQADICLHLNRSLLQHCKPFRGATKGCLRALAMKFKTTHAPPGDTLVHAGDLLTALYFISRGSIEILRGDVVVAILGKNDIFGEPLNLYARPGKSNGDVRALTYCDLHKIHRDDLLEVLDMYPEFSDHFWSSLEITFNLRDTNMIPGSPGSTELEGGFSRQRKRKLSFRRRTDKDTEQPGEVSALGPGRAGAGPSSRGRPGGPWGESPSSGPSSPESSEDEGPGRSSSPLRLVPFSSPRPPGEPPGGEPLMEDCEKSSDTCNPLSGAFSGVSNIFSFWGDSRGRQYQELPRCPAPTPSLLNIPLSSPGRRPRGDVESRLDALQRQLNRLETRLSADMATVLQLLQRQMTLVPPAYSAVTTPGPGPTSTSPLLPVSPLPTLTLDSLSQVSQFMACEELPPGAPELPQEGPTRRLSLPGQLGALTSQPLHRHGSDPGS

With `O=c1cc(OCc2ccccc2)ccn1-c1ccc(N2CCC3(CC2)CNC3)cc1` [Compound 1-1], on human MCH-1 receptor, the IC50 was 79.4 nM. Broadly, the melting point is the temperature, or range, at which the solid turns liquid. Compound `O=c1cc(OCc2ccccc2)ccn1-c1ccc(N2CCC3(CCCNC3)CC2)cc1` [Compound 1-2] showed a melting point of 141.5 °C. Moreover, the IC50 on human MCH-1 receptor is 50.1 nM. As to `O=c1cc(OCc2ccccc2)ccn1-c1ccc(N2CCC3(CC2)CNCCO3)cc1` [Compound 1-3], the IC50 on human MCH-1 receptor is 126 nM. As to `O=c1cc(OCc2ccccc2)ccn1-c1ccc(N2CCCC3(CCNC3)C2)cc1` (stereo not drawn) [Compound 1-4], the IC50 at human MCH-1 receptor is 31.6 nM. `O=c1cc(OCc2ccccc2)ccn1-c1ccc(N2CC3(CCNCC3)C2)cc1` [Compound 1-5] returned a melting point of 203.2 °C. The IC50 at human MCH-1 receptor is 31.6 nM. On to `O=c1cc(OCc2ccccc2)ccn1-c1ccc(N2CCC3(CCCNC3)C2)cc1` (stereo not drawn) [Compound 1-6], for which the IC50 on human MCH-1 receptor is 25.1 nM. Consider `O=c1cc(OCc2ccccc2)ccn1-c1ccc(N2CCC3(CCNCC3)C2)cc1` [Compound 1-7], for which the melting point stood at 236.3 °C. The “hERG-reduction (%) at 3 μM” value on HERG potassium channel was −1.8%. For the same compound, the IC50 at human MCH-1 receptor is 63.1 nM.

`CCN1CCC2(CC1)CN(c1ccc(-n3ccc(OCc4ccccc4)cc3=O)cc1)C2` [Compound 1-8]: the IC50 at human MCH-1 receptor is 63.1 nM. Consider `O=c1cc(OCc2ccccc2)ccn1-c1ccc(N2CC3(CCN(C4CC4)CC3)C2)cc1` [Compound 1-9], for which the melting point is 276.5 °C. In addition, on human MCH-1 receptor, the IC50 is 100 nM. For `O=C1CC2(CCNCC2)CN1c1ccc(-n2ccc(OCc3ccccc3)cc2=O)cc1` [Compound 1-10], on human MCH-1 receptor, the IC50 is 79.4 nM. The same measure, in the same setting: as for `O=C1N(c2ccc(-n3ccc(OCc4ccccc4)cc3=O)cc2)CC12CCNCC2` [Compound 1-11], the figure is 50.1 nM.

Regarding `O=c1cc(OCc2ccccc2)ccn1-c1ccc(N2CC3(CCNCC3)C2)cc1` [Compound 1-12], the melting point came out at 231 °C. In addition, the “hERG-reduction (%) at 3 μM” value at HERG potassium channel was 0.7%. Besides, the IC50 at human MCH-1 receptor was 25.1 nM. As to `CN1CCC2(CC1)CCN(c1ccc(-n3ccc(OCc4ccccc4)cc3=O)cc1)C2` [Compound 1-14], on human MCH-1 receptor, the IC50 is 31.6 nM.

In turn, `Cc1cc(-n2ccc(OCc3ccccc3)cc2=O)ccc1N1CC2(CCNCC2)C1` [Compound 2-1] registered a melting point of 164.6 °C. Moreover, at HERG potassium channel, the “hERG-reduction (%) at 3 μM” value is 15.6%. Also, the IC50 at human MCH-1 receptor is 25.1 nM. As for `COc1cc(-n2ccc(OCc3ccccc3)cc2=O)ccc1N1CC2(CCNCC2)C1` [Compound 2-2], the IC50 on human MCH-1 receptor was 39.8 nM.

In the case of `O=c1cc(OCc2ccccc2)ccn1-c1ccc(N2CC3(CCNCC3)C2)c(Cl)c1` [Compound 2-3], the IC50 on human MCH-1 receptor was 25.1 nM. As for `CN1CCC2(CC1)CN(c1ccc(-n3ccc(OCc4ccccc4)cc3=O)cc1Cl)C2` [Compound 2-4], the IC50 at human MCH-1 receptor is 31.6 nM.

Take `O=c1cc(/C=C/c2ccccc2)ccn1-c1ccc(N2CC3(CCNCC3)C2)cc1` [Compound 3-1]: on human MCH-1 receptor, the IC50 is 63.1 nM. With `O=c1cc(OCc2ccc(F)cc2)ccn1-c1ccc(N2CC3(CCNCC3)C2)cc1` [Compound 3-2], the IC50 on human MCH-1 receptor is 39.8 nM. In turn, `O=c1cc(COc2ccccc2)ccn1-c1ccc(N2CC3(CCNCC3)C2)cc1` [Compound 3-3] came in with a melting point of 292.7 °C. On human MCH-1 receptor, the IC50 is 501 nM.
